Data published in PubChem BioAssay (NCI).
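48-hour exposure; five concentrations; linearly interpolated endpoints. TGI marks complete inhibition of growth.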

Legend:
Assay in all cases: NCI tumour cell line growth inhibition, 48 h
MDA-MB-231 breast = test system: MDA-MB-231 breast
OVCAR-8 ovarian = test system: OVCAR-8 ovarian
SF-295 CNS = test system: SF-295 CNS
OVCAR-4 ovarian = test system: OVCAR-4 ovarian
BT-549 breast = test system: BT-549 breast
CCRF-CEM leukemia = test system: CCRF-CEM leukemia
NCI-H226 lung = test system: NCI-H226 lung
RXF 393 renal = test system: RXF 393 renal
MDA-MB-435 = test system: MDA-MB-435
SNB-75 CNS = test system: SNB-75 CNS
COLO 205 colon = test system: COLO 205 colon
CAKI-1 renal = test system: CAKI-1 renal
SK-MEL-28 melanoma = test system: SK-MEL-28 melanoma
SK-MEL-5 melanoma = test system: SK-MEL-5 melanoma
HCT-15 colon = test system: HCT-15 colon
UO-31 renal = test system: UO-31 renal
786-0 renal = test system: 786-0 renal
HL-60(TB) leukemia = test system: HL-60(TB) leukemia
HCT-116 colon = test system: HCT-116 colon
TK-10 renal = test system: TK-10 renal
HS 578T breast = test system: HS 578T breast
ACHN renal = test system: ACHN renal
SNB-19 CNS = test system: SNB-19 CNS
A549 NSCLC = test system: A549 NSCLC
DU-145 prostate = test system: DU-145 prostate
U251 CNS = test system: U251 CNS
IGROV1 ovarian = test system: IGROV1 ovarian
MDA-N = test system: MDA-N
NCI-H522 lung = test system: NCI-H522 lung
EKVX NSCLC = test system: EKVX NSCLC
SW-620 colon = test system: SW-620 colon
NCI-H23 lung = test system: NCI-H23 lung
T-47D breast = test system: T-47D breast
SN12C renal = test system: SN12C renal
SF-268 CNS = test system: SF-268 CNS
HT29 colon = test system: HT29 colon
UACC-257 melanoma = test system: UACC-257 melanoma
SK-OV-3 ovarian = test system: SK-OV-3 ovarian
MALME-3M melanoma = test system: MALME-3M melanoma
UACC-62 melanoma = test system: UACC-62 melanoma
M14 melanoma = test system: M14 melanoma
K-562 leukemia = test system: K-562 leukemia
HOP-92 NSCLC = test system: HOP-92 NSCLC
HCC-2998 colon = test system: HCC-2998 colon
NCI/ADR-RES ovarian = test system: NCI/ADR-RES ovarian
OVCAR-5 ovarian = test system: OVCAR-5 ovarian
LOX IMVI melanoma = test system: LOX IMVI melanoma
NCI-H460 lung = test system: NCI-H460 lung
KM12 colon = test system: KM12 colon
MOLT-4 leukemia = test system: MOLT-4 leukemia
MCF7 breast = test system: MCF7 breast
RPMI-8226 leukemia = test system: RPMI-8226 leukemia
SF-539 CNS = test system: SF-539 CNS
HOP-62 NSCLC = test system: HOP-62 NSCLC
OVCAR-3 ovarian = test system: OVCAR-3 ovarian
PC-3 prostate = test system: PC-3 prostate
A498 renal = test system: A498 renal
SR leukemia = test system: SR leukemia
SK-MEL-2 melanoma = test system: SK-MEL-2 melanoma

## O=C(NCCCN(CCCCN(CCCNC(=O)C(F)(F)F)CCCc1ccccc1)CCCc1ccccc1)C(F)(F)F
MDA-MB-231 breast
  TGI: 3.11 µM
OVCAR-8 ovarian
  TGI: 3.77 µM
SF-295 CNS
  TGI: 3.3 µM
OVCAR-4 ovarian
  TGI: 17.6 µM
BT-549 breast
  TGI: 7.34 µM
CCRF-CEM leukemia
  TGI: 18.8 µM
NCI-H226 lung
  TGI: 27 µM
RXF 393 renal
  TGI: 3.31 µM
MDA-MB-435
  TGI: 3.35 µM
SNB-75 CNS
  TGI: 2.56 µM
COLO 205 colon
  TGI: 3.11 µM
CAKI-1 renal
  TGI: 3.69 µM
SK-MEL-28 melanoma
  TGI: 3.16 µM
SK-MEL-5 melanoma
  TGI: 3.43 µM
HCT-15 colon
  TGI: 2.98 µM
UO-31 renal
  TGI: 2.52 µM
786-0 renal
  TGI: 2.86 µM
HL-60(TB) leukemia
  TGI: 23.9 µM
HCT-116 colon
  TGI: 5.9 µM
TK-10 renal
  TGI: 3.79 µM
HS 578T breast
  TGI: 4.2 µM
ACHN renal
  TGI: 3.42 µM
SNB-19 CNS
  TGI: 4.17 µM
A549 NSCLC
  TGI: 3.73 µM
DU-145 prostate
  TGI: 3.99 µM
U251 CNS
  TGI: 3.56 µM
IGROV1 ovarian
  TGI: 3.52 µM
MDA-N
  TGI: 3.04 µM
NCI-H522 lung
  TGI: 3.51 µM
EKVX NSCLC
  TGI: 4.23 µM
SW-620 colon
  TGI: 3.93 µM
NCI-H23 lung
  TGI: 25.3 µM
T-47D breast
  TGI: 3.84 µM
SN12C renal
  TGI: 5.8 µM
SF-268 CNS
  TGI: 3.3 µM
HT29 colon
  TGI: 3.23 µM
UACC-257 melanoma
  TGI: 3.32 µM
SK-OV-3 ovarian
  TGI: 5.6 µM
MALME-3M melanoma
  TGI: 3.34 µM
UACC-62 melanoma
  TGI: 3.36 µM
M14 melanoma
  TGI: 3.25 µM
K-562 leukemia
  TGI: > 100 µM
HOP-92 NSCLC
  TGI: 4.63 µM
HCC-2998 colon
  TGI: 3.27 µM
NCI/ADR-RES ovarian
  TGI: 15.5 µM
OVCAR-5 ovarian
  TGI: 25.9 µM
LOX IMVI melanoma
  TGI: 3.89 µM
NCI-H460 lung
  TGI: 3.27 µM
KM12 colon
  TGI: 3.65 µM
MOLT-4 leukemia
  TGI: 4.48 µM
MCF7 breast
  TGI: 3.05 µM
RPMI-8226 leukemia
  TGI: 7.97 µM
SF-539 CNS
  TGI: 3.16 µM

## NC12Oc3cc(O)cc(O)c3C1(c1ccc(Cl)cc1)c1c(O)cc(O)cc1O2 (stereo unspecified)
OVCAR-8 ovarian
  TGI: > 100 µM
SF-295 CNS
  TGI: > 100 µM
HOP-62 NSCLC
  TGI: > 100 µM
OVCAR-3 ovarian
  TGI: > 100 µM
OVCAR-4 ovarian
  TGI: > 100 µM
BT-549 breast
  TGI: > 100 µM
CCRF-CEM leukemia
  TGI: > 100 µM
NCI-H226 lung
  TGI: > 100 µM
RXF 393 renal
  TGI: > 100 µM
PC-3 prostate
  TGI: > 100 µM
MDA-MB-435
  TGI: > 100 µM
SNB-75 CNS
  TGI: > 100 µM
COLO 205 colon
  TGI: > 100 µM
CAKI-1 renal
  TGI: > 100 µM
SK-MEL-28 melanoma
  TGI: > 100 µM
SK-MEL-5 melanoma
  TGI: > 100 µM
HCT-15 colon
  TGI: > 100 µM
UO-31 renal
  TGI: > 100 µM
786-0 renal
  TGI: > 100 µM
HL-60(TB) leukemia
  TGI: > 100 µM
HCT-116 colon
  TGI: > 100 µM
TK-10 renal
  TGI: > 100 µM
HS 578T breast
  TGI: > 100 µM
ACHN renal
  TGI: > 100 µM
SNB-19 CNS
  TGI: > 100 µM
A498 renal
  TGI: > 100 µM
A549 NSCLC
  TGI: > 100 µM
DU-145 prostate
  TGI: > 100 µM
U251 CNS
  TGI: > 100 µM
IGROV1 ovarian
  TGI: > 100 µM
MDA-N
  TGI: > 100 µM
NCI-H522 lung
  TGI: 92.9 µM
EKVX NSCLC
  TGI: > 100 µM
SW-620 colon
  TGI: > 100 µM
NCI-H23 lung
  TGI: > 100 µM
T-47D breast
  TGI: > 100 µM
SN12C renal
  TGI: > 100 µM
SF-268 CNS
  TGI: > 100 µM
HT29 colon
  TGI: > 100 µM
UACC-257 melanoma
  TGI: > 100 µM
SR leukemia
  TGI: > 100 µM
SK-OV-3 ovarian
  TGI: > 100 µM
MALME-3M melanoma
  TGI: > 100 µM
UACC-62 melanoma
  TGI: > 100 µM
M14 melanoma
  TGI: > 100 µM
K-562 leukemia
  TGI: > 100 µM
HOP-92 NSCLC
  TGI: > 100 µM
HCC-2998 colon
  TGI: > 100 µM
NCI/ADR-RES ovarian
  TGI: > 100 µM
OVCAR-5 ovarian
  TGI: > 100 µM
LOX IMVI melanoma
  TGI: > 100 µM
NCI-H460 lung
  TGI: > 100 µM
KM12 colon
  TGI: > 100 µM
SK-MEL-2 melanoma
  TGI: > 100 µM
MOLT-4 leukemia
  TGI: > 100 µM
MCF7 breast
  TGI: > 100 µM
RPMI-8226 leukemia
  TGI: > 100 µM
SF-539 CNS
  TGI: > 100 µM
